Assay results reported in the supplement of paper PMC10307832.

Tests used:
Assay in all cases: relative viability (nuclei count vs DMSO), 5 days (fraction); higher = more cells survive
ChaGo-K-1 = system: ChaGo-K-1
Outline: (§1)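 Values are medians from duplicate plates. Each reflects relative viability, defined as the nuclei count of treated wells over that of vehicle wells. Lung cancer cell lines in 1536-well plates were pin-tool dosed one day after seeding with one drug alone or with a fixed anchor-drug dose plus five library-drug doses (not always all listed) in √10 steps, then fixed, stained and imaged at 4× after 5 days.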

EMC-BAC-2 = system: EMC-BAC-2
Outline: as §1

EPLC-272H = system: EPLC-272H
Outline: as §1

HCC-366 = system: HCC-366
Outline: as §1

HCC-44 = system: HCC-44
Outline: as §1

HCC-78 = system: HCC-78
Outline: as §1

HCC-827 = system: HCC-827
Outline: as §1

LCLC-103H = system: LCLC-103H
Outline: as §1

LK-2 = system: LK-2
Outline: as §1

LOU-NH91 = system: LOU-NH91
Outline: as §1

LU99A = system: LU99A
Outline: as §1

LXF-289 = system: LXF-289
Outline: as §1

NCI-H1666 = system: NCI-H1666
Outline: as §1

NCI-H1975 = system: NCI-H1975
Outline: as §1

NCI-H2085 = system: NCI-H2085
Outline: as §1

NCI-H2126 = system: NCI-H2126
Outline: as §1

NCI-H23 = system: NCI-H23
Outline: as §1

NCI-H2405 = system: NCI-H2405
Outline: as §1

NCI-H3122 = system: NCI-H3122
Outline: as §1

RERF-LC-KJ = system: RERF-LC-KJ
Outline: as §1

SK-LU-1 = system: SK-LU-1
Outline: as §1

SW 1573 = system: SW 1573
Outline: as §1

SW 900 = system: SW 900
Outline: as §1

For `Clc1ccc(Nc2nnc(Cc3ccncc3)c3ccccc23)cc1` [Vatalanib] + O=C(c1cc(Cc2n[nH]c(=O)c3ccccc23)ccc1F)N1CCN(C(=O)C2CC2)CC1 [Olaparib] (partner 8 µM), the relative viability (ChaGo-K-1; first compound 0.04 µM) was 0.412, the relative viability (ChaGo-K-1; first compound 0.1265 µM) was 0.457 and the relative viability (ChaGo-K-1; first compound 0.4 µM) was 0.466. For the same compound, the relative viability (ChaGo-K-1; first compound 1.265 µM) was 0.42, the relative viability (ChaGo-K-1; first compound 4 µM) was 0.433 and the relative viability (EMC-BAC-2; first compound 0.04 µM) was 0.476. It also gave a relative viability (EMC-BAC-2; first compound 0.1265 µM) of 0.476, a relative viability (EMC-BAC-2; first compound 0.4 µM) of 0.497 and a relative viability (EMC-BAC-2; first compound 4 µM) of 0.492. It also gave a relative viability (EPLC-272H; first compound 0.04 µM) of 0.944, a relative viability (EPLC-272H; first compound 0.1265 µM) of 0.79 and a relative viability (EPLC-272H; first compound 0.4 µM) of 1.04. It also gave a relative viability (EPLC-272H; first compound 1.265 µM) of 0.688, a relative viability (EPLC-272H; first compound 4 µM) of 0.86 and a relative viability (HCC-366; first compound 0.04 µM) of 0.337. For the same compound, the relative viability (HCC-366; first compound 0.1265 µM) was 0.34, the relative viability (HCC-366; first compound 0.4 µM) was 0.416 and the relative viability (HCC-366; first compound 1.265 µM) was 0.334. The relative viability (HCC-366; first compound 4 µM) was 0.303, the relative viability (HCC-44; first compound 0.04 µM) was 1.05 and the relative viability (HCC-44; first compound 0.1265 µM) was 0.971. For the same compound, the relative viability (HCC-44; first compound 0.4 µM) was 0.978, the relative viability (HCC-44; first compound 1.265 µM) was 0.998 and the relative viability (HCC-44; first compound 4 µM) was 0.996. For the same compound, the relative viability (HCC-78; first compound 0.04 µM) was 0.899, the relative viability (HCC-78; first compound 0.1265 µM) was 0.865 and the relative viability (HCC-78; first compound 0.4 µM) was 0.761. The relative viability (HCC-78; first compound 1.265 µM) was 0.823, the relative viability (HCC-78; first compound 4 µM) was 0.775 and the relative viability (HCC-827; first compound 0.04 µM) was 0.56. For the same compound, the relative viability (HCC-827; first compound 0.1265 µM) was 0.655, the relative viability (HCC-827; first compound 1.265 µM) was 0.534 and the relative viability (HCC-827; first compound 4 µM) was 0.638. The relative viability (LCLC-103H; first compound 0.04 µM) was 0.746, the relative viability (LCLC-103H; first compound 0.1265 µM) was 0.706 and the relative viability (LCLC-103H; first compound 0.4 µM) was 0.749. For the same compound, the relative viability (LCLC-103H; first compound 1.265 µM) was 0.746, the relative viability (LCLC-103H; first compound 4 µM) was 0.764 and the relative viability (LK-2; first compound 0.04 µM) was 0.723. The relative viability (LK-2; first compound 0.1265 µM) was 0.72, the relative viability (LK-2; first compound 0.4 µM) was 0.792 and the relative viability (LK-2; first compound 1.265 µM) was 0.702. The relative viability (LK-2; first compound 4 µM) was 0.816, the relative viability (LOU-NH91; first compound 0.04 µM) was 0.912 and the relative viability (LOU-NH91; first compound 0.1265 µM) was 0.886. It also gave a relative viability (LOU-NH91; first compound 0.4 µM) of 0.793, a relative viability (LOU-NH91; first compound 1.265 µM) of 0.881 and a relative viability (LOU-NH91; first compound 4 µM) of 0.875. It also gave a relative viability (LU99A; first compound 0.04 µM) of 0.252, a relative viability (LU99A; first compound 0.1265 µM) of 0.281 and a relative viability (LU99A; first compound 0.4 µM) of 0.237. It also gave a relative viability (LU99A; first compound 1.265 µM) of 0.23, a relative viability (LU99A; first compound 4 µM) of 0.309 and a relative viability (LXF-289; first compound 0.04 µM) of 1.04. It also gave a relative viability (LXF-289; first compound 0.1265 µM) of 1, a relative viability (LXF-289; first compound 0.4 µM) of 1.13 and a relative viability (LXF-289; first compound 1.265 µM) of 0.975. For the same compound, the relative viability (LXF-289; first compound 4 µM) was 1.03, the relative viability (NCI-H1666; first compound 0.04 µM) was 0.72 and the relative viability (NCI-H1666; first compound 0.1265 µM) was 0.832. For the same compound, the relative viability (NCI-H1666; first compound 0.4 µM) was 0.804, the relative viability (NCI-H1666; first compound 1.265 µM) was 0.798 and the relative viability (NCI-H1666; first compound 4 µM) was 0.752. The relative viability (NCI-H1975; first compound 0.04 µM) was 0.84, the relative viability (NCI-H1975; first compound 0.1265 µM) was 0.727 and the relative viability (NCI-H1975; first compound 0.4 µM) was 0.729. It also gave a relative viability (NCI-H1975; first compound 1.265 µM) of 0.709, a relative viability (NCI-H1975; first compound 4 µM) of 0.695 and a relative viability (NCI-H2085; first compound 0.04 µM) of 0.839. For the same compound, the relative viability (NCI-H2085; first compound 0.1265 µM) was 0.81, the relative viability (NCI-H2085; first compound 0.4 µM) was 0.812 and the relative viability (NCI-H2085; first compound 1.265 µM) was 0.795. It also gave a relative viability (NCI-H2085; first compound 4 µM) of 0.727, a relative viability (NCI-H2126; first compound 0.04 µM) of 0.888 and a relative viability (NCI-H2126; first compound 0.1265 µM) of 0.926. For the same compound, the relative viability (NCI-H2126; first compound 0.4 µM) was 0.938, the relative viability (NCI-H2126; first compound 1.265 µM) was 0.85 and the relative viability (NCI-H2126; first compound 4 µM) was 0.966. It also gave a relative viability (NCI-H23; first compound 0.04 µM) of 0.306, a relative viability (NCI-H23; first compound 0.1265 µM) of 0.161 and a relative viability (NCI-H23; first compound 0.4 µM) of 0.326. It also gave a relative viability (NCI-H23; first compound 1.265 µM) of 0.305, a relative viability (NCI-H23; first compound 4 µM) of 0.28 and a relative viability (NCI-H2405; first compound 0.04 µM) of 0.808. It also gave a relative viability (NCI-H2405; first compound 0.1265 µM) of 0.807, a relative viability (NCI-H2405; first compound 0.4 µM) of 0.957 and a relative viability (NCI-H2405; first compound 4 µM) of 0.87. It also gave a relative viability (NCI-H3122; first compound 0.04 µM) of 0.593, a relative viability (NCI-H3122; first compound 0.1265 µM) of 0.668 and a relative viability (NCI-H3122; first compound 0.4 µM) of 0.689. For the same compound, the relative viability (NCI-H3122; first compound 1.265 µM) was 0.592, the relative viability (NCI-H3122; first compound 4 µM) was 0.598 and the relative viability (RERF-LC-KJ; first compound 0.04 µM) was 0.879. For the same compound, the relative viability (RERF-LC-KJ; first compound 0.1265 µM) was 1.04, the relative viability (RERF-LC-KJ; first compound 0.4 µM) was 0.913 and the relative viability (RERF-LC-KJ; first compound 1.265 µM) was 0.832. The relative viability (RERF-LC-KJ; first compound 4 µM) was 0.882, the relative viability (SK-LU-1; first compound 0.04 µM) was 0.438 and the relative viability (SK-LU-1; first compound 0.1265 µM) was 0.449. It also gave a relative viability (SK-LU-1; first compound 0.4 µM) of 0.52, a relative viability (SK-LU-1; first compound 1.265 µM) of 0.467 and a relative viability (SK-LU-1; first compound 4 µM) of 0.365. The relative viability (SW 1573; first compound 0.04 µM) was 0.466, the relative viability (SW 1573; first compound 0.1265 µM) was 0.521 and the relative viability (SW 1573; first compound 0.4 µM) was 0.506. For the same compound, the relative viability (SW 1573; first compound 1.265 µM) was 0.55, the relative viability (SW 1573; first compound 4 µM) was 0.355 and the relative viability (SW 900; first compound 0.04 µM) was 0.759. For the same compound, the relative viability (SW 900; first compound 0.1265 µM) was 0.674, the relative viability (SW 900; first compound 0.4 µM) was 0.997 and the relative viability (SW 900; first compound 1.265 µM) was 0.853. For the same compound, the relative viability (SW 900; first compound 4 µM) was 0.93.
